Measured values: patent publication US20250235499A1, “ANTI-OVARIAN CANCER PHARMACEUTICAL COMPOSITION AND ACTION TARGET THEREOF” (Zhejiang Chinese Medical University, priority 2024, published 2025)

Assays:
Hey ovarian cancer cell = experiment: Tumor bearing nude mouse model (tumor volume, tumor inhibition rate, body weight); assay type: in vivo, BALB/c nude mice; details: intraperitoneal, 15 days; DDP 3 mg/kg, CA 80 mg/kg, BDMC 5 mg/kg; compared to the Control group, P<0.01
Protocol: Newly housed BALB/c nude mice were placed in an SPF grade feeding room laminar flow rack for adaptive feeding for one week, and the experimental animal status was adjusted. A Hey ovarian cancer cell was cultivated to the logarithmic growth stage, and the original culture medium was discarded. The Hey ovarian cancer cell was washed with PBS buffer, added with 0.1% trypsin digestion for digestion, added with the corresponding culture medium to terminate digestion, centrifuged at 1000 rpm for 3 minutes, and added with PBS buffer to prepare a cell suspension. The cell was counted using a hemocytometer, and the cell concentration was quantified to 5×10^7 cells/mL. After grasping and fixing the nude mouse with the left hand, and the skin at a needle inserting site on the right forelimb axilla of the nude mouse was disinfected with a 75% alcohol cotton ball. A disposable 1 mL syringe was used to inject approximately 100 μL of cell suspension subcutaneously into the posterior axilla of the right forelimb in an oblique stabbing inserting needle mode, so that each nude mouse was injected with approximately 5×10^6 cells. After vaccination, the needle inserting site was gently pressed with a cotton ball to prevent the cell suspension from leaking from a needle hole. The growth status of tumors at the vaccination site of nude mice was observed daily. After about one week, if the tumors at the vaccination site were compacted and appeared light red in color, it could be considered as successful tumor growth. At this time, the nude mice were randomly divided into 5 groups, a Control group intraperitoneally injected with physiological saline for 1 day each time; a DDP group intraperitoneally injected with cisplatin, 3 mg/kg, 3 d/time; a CA group intraperitoneally injected with CA, 80 mg/kg, 1 d/time; a BDMC group intraperitoneally injected with BDMC, 5 mg/kg, 1 d/time; a CA+BDMC group intraperitoneally injected with CA 80 mg/kg+BDMC 5 mg/kg, 1 d/time, 8 animals per group. A tumor length (L) and a […] were measured with a vernier caliper every 3 days to calculate a tumor volume. After 15 days of administration, nude mice were euthanized by dislocation of cervical vertebra, and tumor tissue was dissected. The tumor weight was weighed to calculate the tumor inhibition rate. The tumor tissue was stored in two batches at −80° C. and fixed with 4% paraformaldehyde.

[1] = tested on: MCM2, CDK4, Cyclin D1, P21; experiment: Western Blot of tumor body cyclin in tumor bearing nude mice; assay type: in vivo, BALB/c nude mice; details: nude mouse tumor body, compared to the Control group
Excerpt: The expression of nude mice tumor body cyclin and EMT related proteins in tumor bearing nude mice after intervention with DDP, CA, BDMC, and combined administration was shown in FIG. 29. In the figure, 1 represented the Control group; 2 represented the DDP group; 3 represented the CA group; 4 represented the BDMC group; and 5 represented the CA+BDMC group.

**Q.** With N.N.[Cl][Pt][Cl] [DDP, cisplatin, reference compound] as the molecule, how does the tumor inhibition rate (Hey ovarian cancer cell) read?
**A.** The tumor inhibition rate was “significantly increased”.

**Q.** What about the tumor volume size (Hey ovarian cancer cell) of the same molecule?
**A.** The tumor volume size was “significantly reduced”.

**Q.** What about the “expression of CDK4 protein (Western Blot)” value [1] of the same molecule?
**A.** Its value is “significantly decreased”.
